Source: PMC9965125, “New NSAID Conjugates as Potent and Selective COX-2 Inhibitors: Synthesis, Molecular Modeling and Biological Investigation” (Molecules, 2023)
Where “and” joins values, the source holds several entries; their conditions need not be identical. Equal entries are not always repeated.

Key:
[1] = test system: carrageenan induced paw edema; test: carrageenan-induced rat paw edema; format: in vivo; details: for % Inhibition of Edema ± Standard Error / Mean Edema Thickness: 10 mg/kg indomethacin mol equivalent i.p.; for Mean Edema Thickness: ± standard error
TNF-α mRNA = details: 40 μg/mL; in comparison to LPS-stimulated cells only
Method: (§1) For this purpose, the mRNA levels of IL-6, TNF-α, and iNOS were measured using real-time qPCR (RT-qPCR).
(§2) Treatment of LPS-stimulated RAW264.7 macrophages was done with 40 µg/mL of the isolated
(§3) Evaluation of inflammatory mRNA expression levels
(§4) Inflammatory mRNA expression levels were evaluated using RT-qPCR (Applied Biosystems, CA, USA). Total RNA was extracted by lysing RAW264.7 cells using Qiazol Lysis Reagent. The extracted RNA was used to synthesize cDNA using RevertAid First Strand cDNA synthesis kit according to manufacturer’s protocol. The cDNA was then added with forward and reverse
(§5) primers, nuclease free water and maxima SYBR green mix (Thermo Fisher Scientific, MA, USA).
(§6) The inflammation-related genes of mRNA expression levels are as follows: IL-6, TNF-α, and
(§7) iNOS. All expression was normalized to GAPDH (endogenous control) and relative fold mRNA
(§8) expression levels were calculated using the comparative 2 −ΔΔCT method. The PCR reaction consists
(§9) of initiation stage at 95 °C for 10 min, after that 40 PCR cycles of d enaturation stage for 15 s at 95
(§10) °C and annealing and extension for 1 min at 60 °C.

[2] = test system: LPS-stimulated RAW264.7 macrophages; test: NO production of LPS-induced RAW264.7 (Griess method); format: cell-based; details: 40 μg/mL; LPS 10 ng/mL; LPS only 22 μM, baseline 12.8 μM
IL-6 mRNA = details: 40 μg/mL; in comparison to LPS-stimulated cells only
Method: as §1, §2, §3, §4, §5, §6, §7, §8, §9, §10

iNOS mRNA = details: 40 μg/mL; in comparison to LPS-stimulated cells only
Method: as §1, §2, §3, §4, §5, §6, §7, §8, §9, §10

Compound | % Inhibition of Edema ± Standard Error ([1]; 1 h) | Mean Edema Thickness ([1]; 1 h) | % Inhibition of Edema ± Standard Error ([1]; 2 h) | Mean Edema Thickness ([1]; 2 h) | % Inhibition of Edema ± Standard Error ([1]; 3 h, 10 mg/kg) | Mean Edema Thickness ([1]; 3 h) | % Inhibition of Edema ± Standard Error ([1]; 4 h) | Mean Edema Thickness ([1]; 4 h) | % Inhibition of Edema ± Standard Error ([1]; 24 h) | Mean Edema Thickness ([1]; 24 h) | % Potency ([1]; % inhibition of edema thickness relative to indomethacin at 3 h) | reduction in TNF-α mRNA levels (TNF-α mRNA) | LPS-stimulated NO production (nitrite) [2] | reduction in IL-6 mRNA levels (IL-6 mRNA) | reduction in iNOS mRNA levels (iNOS mRNA)
C#CCOC(=O)C(C)c1ccc(CC(C)C)cc1 (stereo not drawn) [Compound 3, Prop-2-yn-1-yl 2-(4-isobutylphenyl) Propanoate] | 15.8 ± 1.9% | 0.727 ± 0.05 mm | 17.4 ± 0.9% | 0.589 ± 0.01 mm | 85.8% and 85.8 ± 1.1% | 0.103 ± 0.04 mm | 33.7 ± 1.2% | 0.473 ± 0.03 mm | 0.00 ± 0.3% | 0.920 ± 0.02 mm | 105.8% | – | – | – | –
Cc1ccc(-n2cc(COC(=O)C(C)c3ccc(CC(C)C)cc3)nn2)cc1 (stereo not drawn) [Compound 5d, (1-(p-Tolyl)-1H-1,2,3-triazol-4-yl)methyl 2-(4-isobutylphenyl)propanoate] | – | – | – | – | – | – | – | – | 0.00 ± 1.7% | – | – | 72% | 1.45 ± 1.3 µM | 66.2% | 59%
COc1ccccc1-n1cc(COC(=O)C(C)c2ccc(CC(C)C)cc2)nn1 (stereo not drawn) [Compound 5e, (1-(2-Methoxyphenyl)-1H-1,2,3-triazol-4-yl)methyl 2-(4-isobutylphenyl)propanoate] | – | – | – | – | – | – | 7.4 ± 1.8% | – | – | – | – | 86% | insignificant decrease | 82% | 42%
